Experimental data reported in BindingDB's records for doi:10.3109/14756366.2011.599029 (Dumlupinar University, 2012).

Key:
Carbonic anhydrase 2 = Carbonic anhydrase 2 (Homo sapiens, UniProt P00918); test: hCA Activity Assay
Carbonic anhydrase 1 = Carbonic anhydrase 1 (Homo sapiens, UniProt P00915); test: hCA Activity Assay
Sequence of Carbonic anhydrase 1 (P00915 whole entry): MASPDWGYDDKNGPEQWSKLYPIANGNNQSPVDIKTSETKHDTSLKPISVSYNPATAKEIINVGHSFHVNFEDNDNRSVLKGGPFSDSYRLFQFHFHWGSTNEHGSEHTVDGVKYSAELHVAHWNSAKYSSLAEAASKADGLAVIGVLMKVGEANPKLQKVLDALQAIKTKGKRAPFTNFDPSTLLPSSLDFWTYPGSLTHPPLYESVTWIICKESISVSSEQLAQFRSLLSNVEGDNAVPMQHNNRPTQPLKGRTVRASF

Row | SMILES | Ki (Carbonic anhydrase 2) [nM] | Ki (Carbonic anhydrase 1) [nM]
1 | CC1(C)CC(=O)C2=C(C1)N(c1ccc(S(N)(=O)=O)cc1)C1=C(C(=O)CC(C)(C)C1)C2c1ccccn1 [4-(3,3,6,6-tetramethyl-1,8-dioxo-9-(pyridin-2-yl)-1,2,3,4,5,6,7,8-octahydroacridine-10(9H)-yl)benzenesulfonamide (6)] | 130 | 55
2 | CC1(C)CCC2=C(C1=O)C(c1ccc(Cl)cc1Cl)C1=C(CCC(C)(C)C1=O)N2c1ccc(S(N)(=O)=O)cc1 [4-(9-(2,4-Dichlorophenyl)-2,2,7,7-tetramethyl 1,8-dioxo 1,2,3,4,5,6,7,8-octahydroacridine 10(9H)-yl)benzenesulfonamide (12)] | 35 | 220
3 | COc1ccc(C2C3=C(CCCC3=O)N(c3ccc(S(N)(=O)=O)cc3)C3=C2C(=O)CCC3)c(OC)c1 [4-(9-(2,4-dimethoxyphenyl)-1,8-dioxo-1,2,3,4,5,6,7,8-octahydroacridine-10(9H)-yl) benzenesulfonamide (7)] | 1.5 | 15
4 | COc1ccc(C2C3=C(CCC(C)(C)C3=O)N(c3ccc(S(N)(=O)=O)cc3)C3=C2C(=O)C(C)(C)CC3)cc1OC [4-(9-(3,4-Dimethoxyphenyl)-2,2,7,7-tetramethyl 1,8-dioxo 1,2,3,4,5,6,7,8-octahydroacridine 10(9H)-yl)benzenesulfonamide (11)] | 120 | 205
5 | CC1(C)CCC2=C(C1=O)C(c1ccc(C#N)cc1)C1=C(CCC(C)(C)C1=O)N2c1ccc(S(N)(=O)=O)cc1 [4-(9-(4-Cyanophenyl)-2,2,7,7-tetramethyl 1,8-dioxo 1,2,3,4,5,6,7,8-octahydroacridine 10(9H)-yl)benzenesulfonamide (9)] | 95 | 135
6 | CC1(C)CC(=O)C2=C(C1)N(c1ccc(S(N)(=O)=O)cc1)C1=C(C(=O)CC(C)(C)C1)C2c1ccc(C#N)cc1 [4-(9-(4-Cyanophenyl)-3,3,6,6-tetramethyl-1,8-dioxo-1,2,3,4,5,6,7,8-octahydroacridine-10(9H)-yl)benzenesulfonamide (4)] | 250 | 520
7 | CC1(C)CCC2=C(C1=O)C(c1ccc(O)cc1)C1=C(CCC(C)(C)C1=O)N2c1ccc(S(N)(=O)=O)cc1 [4-(9-(4-Hydroxyphenyl)-2,2,7,7-tetramethyl 1,8-dioxo 1,2,3,4,5,6,7,8-octahydroacridine 10(9H)-yl)benzenesulfonamide (10)] | 125 | 45
8 | COc1ccc(C2C3=C(CC(C)(C)CC3=O)N(c3ccc(S(N)(=O)=O)cc3)C3=C2C(=O)CC(C)(C)C3)cc1 [4-(9-(4-Methoxyphenyl)-3,3,6,6-tetramethyl-1,8-dioxo-1,2,3,4,5,6,7,8-octahydroacridine-10(9H)-yl)benzenesulfonamide (5)] | 150 | 75
9 | COc1ccc(C2C3=C(CCCC3=O)N(c3ccc(S(N)(=O)=O)cc3)C3=C2C(=O)CCC3)cc1 [4-(9-(4-methoxyphenyl)-1,8-dioxo-1,2,3,4,5,6,7,8-octahydroacridine-10(9H)-yl)benzene sulfonamide (8)] | 7 | 8.5
